Legend:
[1] = target: T1, Alpha-2B adrenergic receptor (Homo sapiens, UniProt P18089)
T1 sequence (P18089 whole entry): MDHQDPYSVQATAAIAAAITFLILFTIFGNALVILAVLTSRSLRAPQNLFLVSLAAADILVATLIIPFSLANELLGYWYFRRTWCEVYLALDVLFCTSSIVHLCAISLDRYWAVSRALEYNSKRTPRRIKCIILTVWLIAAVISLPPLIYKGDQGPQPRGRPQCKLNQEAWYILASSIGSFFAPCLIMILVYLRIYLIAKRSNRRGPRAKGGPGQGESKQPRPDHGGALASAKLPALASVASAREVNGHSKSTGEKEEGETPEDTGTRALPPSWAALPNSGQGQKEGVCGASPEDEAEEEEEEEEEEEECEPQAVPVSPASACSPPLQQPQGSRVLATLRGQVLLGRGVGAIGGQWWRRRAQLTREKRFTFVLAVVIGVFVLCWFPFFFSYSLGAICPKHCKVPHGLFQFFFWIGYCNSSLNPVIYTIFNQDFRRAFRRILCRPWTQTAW

Vasopressin V2 receptor = Vasopressin V2 receptor (Homo sapiens, UniProt P30518)
[2] = target: 5-hydroxytryptamine receptor 7 (Homo sapiens, UniProt P34969)
[3] = target: T2, Alpha-2A adrenergic receptor (Homo sapiens, UniProt P08913)
T2 sequence (P08913 whole entry): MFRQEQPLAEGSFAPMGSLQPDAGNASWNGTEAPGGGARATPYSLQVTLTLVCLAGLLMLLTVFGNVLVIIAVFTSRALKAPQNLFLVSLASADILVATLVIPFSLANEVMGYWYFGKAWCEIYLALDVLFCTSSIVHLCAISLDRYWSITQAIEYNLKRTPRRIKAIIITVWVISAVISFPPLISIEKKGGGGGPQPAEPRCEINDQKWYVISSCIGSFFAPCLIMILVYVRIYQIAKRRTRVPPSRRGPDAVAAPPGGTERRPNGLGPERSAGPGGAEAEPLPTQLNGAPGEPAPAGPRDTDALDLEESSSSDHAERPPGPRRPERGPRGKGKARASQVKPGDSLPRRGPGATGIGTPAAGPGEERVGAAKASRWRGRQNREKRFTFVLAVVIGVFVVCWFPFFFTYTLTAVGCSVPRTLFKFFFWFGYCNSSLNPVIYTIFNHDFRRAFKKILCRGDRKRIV

Mu-type opioid receptor = Mu-type opioid receptor (Homo sapiens, UniProt P35372)
[4] = target: Beta-1 adrenergic receptor (Rattus norvegicus, UniProt P18090)
[5] = target: Glutamate receptor ionotropic, NMDA 1 (Rattus norvegicus, UniProt P35439)
[6] = target: T3, Alpha-1A adrenergic receptor (Homo sapiens, UniProt P35348)
T3 sequence (P35348 whole entry): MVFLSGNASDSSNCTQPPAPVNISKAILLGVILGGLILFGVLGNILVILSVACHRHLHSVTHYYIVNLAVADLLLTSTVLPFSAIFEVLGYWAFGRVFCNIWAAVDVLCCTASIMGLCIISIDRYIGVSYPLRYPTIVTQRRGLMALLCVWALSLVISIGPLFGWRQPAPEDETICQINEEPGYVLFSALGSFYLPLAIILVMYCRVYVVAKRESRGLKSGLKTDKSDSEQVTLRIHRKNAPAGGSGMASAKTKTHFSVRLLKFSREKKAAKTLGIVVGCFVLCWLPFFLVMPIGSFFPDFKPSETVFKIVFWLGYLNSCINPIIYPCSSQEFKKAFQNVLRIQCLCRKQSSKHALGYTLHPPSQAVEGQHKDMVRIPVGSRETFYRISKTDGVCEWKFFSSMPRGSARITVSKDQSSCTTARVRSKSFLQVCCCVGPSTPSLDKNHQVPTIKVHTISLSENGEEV

D(2) dopamine receptor = D(2) dopamine receptor (Rattus norvegicus, UniProt P61169)
[7] = target: Sodium-dependent noradrenaline transporter (Homo sapiens, UniProt P23975)
[8] = target: T4, 5-hydroxytryptamine receptor 1A (Homo sapiens, UniProt P08908)
T4 sequence (P08908 whole entry): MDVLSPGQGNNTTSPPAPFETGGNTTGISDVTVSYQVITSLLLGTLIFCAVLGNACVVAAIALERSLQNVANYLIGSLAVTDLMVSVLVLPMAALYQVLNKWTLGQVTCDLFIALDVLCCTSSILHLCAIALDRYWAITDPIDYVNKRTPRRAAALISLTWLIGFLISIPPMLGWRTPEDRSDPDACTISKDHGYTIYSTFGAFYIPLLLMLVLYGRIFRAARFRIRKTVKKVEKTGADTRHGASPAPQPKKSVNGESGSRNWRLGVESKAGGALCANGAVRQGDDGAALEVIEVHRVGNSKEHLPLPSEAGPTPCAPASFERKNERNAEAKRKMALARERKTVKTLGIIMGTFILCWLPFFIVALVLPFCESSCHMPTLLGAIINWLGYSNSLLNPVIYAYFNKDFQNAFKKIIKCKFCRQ

[9] = target: T5, 5-hydroxytryptamine receptor 2C (Rattus norvegicus, UniProt P08909)
T5 sequence (P08909 whole entry): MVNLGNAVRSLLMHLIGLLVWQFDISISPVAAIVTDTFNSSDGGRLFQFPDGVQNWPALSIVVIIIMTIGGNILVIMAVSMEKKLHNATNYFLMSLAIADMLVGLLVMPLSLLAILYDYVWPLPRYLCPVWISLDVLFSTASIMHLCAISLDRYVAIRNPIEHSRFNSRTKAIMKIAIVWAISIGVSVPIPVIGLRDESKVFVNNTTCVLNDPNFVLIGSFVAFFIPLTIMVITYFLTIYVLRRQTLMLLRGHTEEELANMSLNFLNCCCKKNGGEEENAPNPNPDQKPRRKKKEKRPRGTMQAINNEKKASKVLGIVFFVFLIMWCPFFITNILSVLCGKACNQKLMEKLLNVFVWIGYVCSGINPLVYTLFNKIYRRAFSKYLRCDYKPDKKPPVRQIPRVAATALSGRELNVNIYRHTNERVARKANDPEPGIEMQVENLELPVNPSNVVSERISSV

Chain of D(2) dopamine receptor (P61169 whole entry): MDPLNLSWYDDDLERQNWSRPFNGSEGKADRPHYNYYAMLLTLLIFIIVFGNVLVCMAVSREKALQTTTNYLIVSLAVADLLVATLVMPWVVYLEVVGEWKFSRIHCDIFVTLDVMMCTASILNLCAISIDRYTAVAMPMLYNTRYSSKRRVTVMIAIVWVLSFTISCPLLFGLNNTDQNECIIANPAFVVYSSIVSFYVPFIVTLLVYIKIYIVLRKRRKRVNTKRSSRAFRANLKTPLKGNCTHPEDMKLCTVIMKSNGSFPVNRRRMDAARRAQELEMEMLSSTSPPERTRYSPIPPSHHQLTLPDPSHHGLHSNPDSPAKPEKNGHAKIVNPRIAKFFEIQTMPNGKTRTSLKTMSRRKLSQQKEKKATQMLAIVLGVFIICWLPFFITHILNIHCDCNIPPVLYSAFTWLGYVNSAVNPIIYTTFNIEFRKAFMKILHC
Chain of Vasopressin V2 receptor (P30518 whole entry): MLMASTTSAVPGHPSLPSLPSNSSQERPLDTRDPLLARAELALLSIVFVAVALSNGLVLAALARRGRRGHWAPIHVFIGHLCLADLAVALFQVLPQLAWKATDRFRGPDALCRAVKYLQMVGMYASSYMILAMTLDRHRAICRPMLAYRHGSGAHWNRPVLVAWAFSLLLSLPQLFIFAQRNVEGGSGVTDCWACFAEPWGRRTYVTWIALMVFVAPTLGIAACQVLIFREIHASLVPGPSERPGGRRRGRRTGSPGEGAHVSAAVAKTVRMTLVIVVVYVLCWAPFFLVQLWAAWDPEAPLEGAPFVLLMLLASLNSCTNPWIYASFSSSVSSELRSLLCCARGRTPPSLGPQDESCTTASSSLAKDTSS
Chain of 5-hydroxytryptamine receptor 7 (P34969 whole entry): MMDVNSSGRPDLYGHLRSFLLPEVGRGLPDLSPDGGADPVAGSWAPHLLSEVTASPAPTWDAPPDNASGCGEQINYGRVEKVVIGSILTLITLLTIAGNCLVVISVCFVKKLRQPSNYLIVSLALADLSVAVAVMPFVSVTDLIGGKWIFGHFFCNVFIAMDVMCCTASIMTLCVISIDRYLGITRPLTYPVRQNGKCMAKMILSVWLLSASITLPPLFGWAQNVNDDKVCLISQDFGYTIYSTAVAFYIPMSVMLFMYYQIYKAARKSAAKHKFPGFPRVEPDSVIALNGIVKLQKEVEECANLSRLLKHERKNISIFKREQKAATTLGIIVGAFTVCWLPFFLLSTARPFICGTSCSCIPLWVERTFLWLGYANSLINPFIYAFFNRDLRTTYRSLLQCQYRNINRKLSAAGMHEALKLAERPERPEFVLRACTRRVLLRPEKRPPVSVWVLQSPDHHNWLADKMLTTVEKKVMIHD
Chain of Beta-1 adrenergic receptor (P18090 whole entry): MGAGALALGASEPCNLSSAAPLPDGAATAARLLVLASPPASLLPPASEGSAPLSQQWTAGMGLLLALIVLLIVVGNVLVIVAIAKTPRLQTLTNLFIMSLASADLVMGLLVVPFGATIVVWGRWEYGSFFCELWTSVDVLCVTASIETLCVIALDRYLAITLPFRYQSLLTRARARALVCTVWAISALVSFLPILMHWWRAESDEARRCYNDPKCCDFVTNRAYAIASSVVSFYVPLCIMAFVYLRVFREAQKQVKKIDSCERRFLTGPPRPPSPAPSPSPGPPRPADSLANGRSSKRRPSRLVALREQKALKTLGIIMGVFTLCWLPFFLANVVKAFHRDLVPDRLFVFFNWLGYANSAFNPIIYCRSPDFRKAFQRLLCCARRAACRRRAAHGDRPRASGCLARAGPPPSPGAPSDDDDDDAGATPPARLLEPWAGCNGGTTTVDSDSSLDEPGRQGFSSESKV
Chain of Sodium-dependent noradrenaline transporter (P23975 whole entry): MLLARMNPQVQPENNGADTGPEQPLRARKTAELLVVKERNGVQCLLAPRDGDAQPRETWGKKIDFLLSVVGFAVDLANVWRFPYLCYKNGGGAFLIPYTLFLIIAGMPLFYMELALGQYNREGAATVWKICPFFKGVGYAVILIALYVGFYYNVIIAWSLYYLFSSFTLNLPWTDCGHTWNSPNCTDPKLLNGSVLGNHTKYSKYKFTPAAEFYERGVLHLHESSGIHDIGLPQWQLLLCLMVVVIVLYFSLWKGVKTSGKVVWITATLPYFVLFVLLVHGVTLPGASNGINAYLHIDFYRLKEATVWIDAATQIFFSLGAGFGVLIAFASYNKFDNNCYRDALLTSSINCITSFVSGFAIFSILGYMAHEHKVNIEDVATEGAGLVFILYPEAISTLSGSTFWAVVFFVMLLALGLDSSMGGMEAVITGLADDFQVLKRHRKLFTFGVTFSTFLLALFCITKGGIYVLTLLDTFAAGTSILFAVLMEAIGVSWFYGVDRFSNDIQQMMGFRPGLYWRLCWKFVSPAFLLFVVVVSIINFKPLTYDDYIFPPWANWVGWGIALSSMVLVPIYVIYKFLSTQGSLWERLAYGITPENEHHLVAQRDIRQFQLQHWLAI
Chain of Mu-type opioid receptor (P35372 whole entry): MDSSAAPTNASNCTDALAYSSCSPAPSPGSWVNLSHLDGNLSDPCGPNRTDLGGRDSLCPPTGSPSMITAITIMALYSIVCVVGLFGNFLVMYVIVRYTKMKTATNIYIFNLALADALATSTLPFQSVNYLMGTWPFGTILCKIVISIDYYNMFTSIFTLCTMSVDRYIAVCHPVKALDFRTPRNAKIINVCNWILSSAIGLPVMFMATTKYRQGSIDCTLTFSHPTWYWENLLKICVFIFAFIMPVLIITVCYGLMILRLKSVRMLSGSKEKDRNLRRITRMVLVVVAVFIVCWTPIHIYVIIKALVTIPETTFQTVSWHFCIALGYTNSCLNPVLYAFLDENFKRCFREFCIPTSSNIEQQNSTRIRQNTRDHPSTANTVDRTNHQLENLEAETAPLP

Ki [1] [µM]	Ki (Vasopressin V2 receptor) [µM]	Ki [2] [µM]	Ki [3] [µM]	Ki (Mu-type opioid receptor) [µM]	Ki [4] [µM]	Ki [5] [µM]	Ki [6] [µM]	Ki (D(2) dopamine receptor) [µM]	Ki [7] [µM]	Ki [8] [µM]	Ki [9] [µM]	SMILES
> 10	> 10	> 10	> 10	> 10	> 10	> 10	> 10	> 10	> 10	> 10	–	O=c1cc(O)cc2oc(-c3ccc(O)c(-c4c(O)cc(O)c5c(=O)cc(-c6ccc(O)cc6)oc45)c3)cc(O)c1-2
> 10	> 10	> 10	> 10	> 10	> 10	> 10	> 10	> 10	> 10	> 10	> 10	CC(C)=CCC[C@]1(C)[C@@H](CC=C(C)C)C[C@]2(CC=C(C)C)C(=O)C(CC=C(C)C)C(=O)[C@]1(C(=O)C(C)C)C2=O (stereo not given in full)
> 10	> 10	> 10	9.34	> 10	> 10	> 10	> 10	> 10	> 10	> 10	> 10	C[C@@H]1O[C@@H](OC[C@H]2O[C@@H](Oc3c(-c4ccc(O)c(O)c4)oc4cc(O)cc(O)c4c3=O)[C@H](O)[C@@H](O)[C@@H]2O)[C@H](O)[C@H](O)[C@H]1O [3-Rhamnoglucosylquercetin]
> 10	> 10	> 10	–	> 10	> 10	> 10	> 10	> 10	> 10	> 10	> 10	O=c1cc(O)cc2oc(-c3ccc(O)c(O)c3)c(OC3OC(CO)C(O)C(O)C3O)c(O)c1-2 (stereo not given) [NSC_5318390]

SMILES	Ki [1] [µM]	Ki (Vasopressin V2 receptor) [µM]	Ki [2] [µM]	Ki [3] [µM]	Ki (Mu-type opioid receptor) [µM]	Ki [4] [µM]	Ki [5] [µM]	Ki [6] [µM]	Ki (D(2) dopamine receptor) [µM]	Ki [7] [µM]	Ki [8] [µM]	Ki [9] [µM]
C[C@@H]1O[C@@H](Oc2c(-c3ccc(O)c(O)c3)oc3cc(O)cc(=O)c-3c2O)[C@H](O)[C@H](O)[C@H]1O	> 10	> 10	> 10	> 10	> 10	> 10	> 10	> 10	> 10	> 10	> 10	> 10
O=c1c(O)c(-c2ccc(O)c(O)c2)oc2cc(O)cc(O)c12 [2-(3,4-dihydroxyphenyl)-3,5,7-trihydroxy-chromone;hydrate]	> 10	–	> 10	> 10	–	> 10	–	–	> 10	–	> 10	> 10
